Assay results published in ChEMBL document CHEMBL4130471, “Design and synthesis of tranylcypromine derivatives as novel LSD1/HDACs dual inhibitors for cancer treatment” (Eur J Med Chem, 2017).
pIC50: −log10 of the molar value.

Experiments:
[1] = tested on: MGC-803; experiment: cells; type: functional, cell-based; settings: Homo sapiens, MGC-803, 72 h
Description: Antiproliferative activity against human MGC803 cells incubated for 72 hrs by MTT assay

[2] = tested on: PC-3; experiment: cells; type: functional, cell-based; settings: Homo sapiens, PC-3, 72 h
Description: Antiproliferative activity against human PC3 cells incubated for 72 hrs by MTT assay

[3] = biological target: Histone deacetylase 1 (Homo sapiens, UniProt Q13547); experiment: Inhibition of C-terminal His-tagged and C-terminal FLAG-tagged human HDAC1 expressed in baculovirus expression system using Ac-peptide substrate incubated for 15 mins by fluorescence based assay
Histone deacetylase 1, sequence (Q13547 whole entry): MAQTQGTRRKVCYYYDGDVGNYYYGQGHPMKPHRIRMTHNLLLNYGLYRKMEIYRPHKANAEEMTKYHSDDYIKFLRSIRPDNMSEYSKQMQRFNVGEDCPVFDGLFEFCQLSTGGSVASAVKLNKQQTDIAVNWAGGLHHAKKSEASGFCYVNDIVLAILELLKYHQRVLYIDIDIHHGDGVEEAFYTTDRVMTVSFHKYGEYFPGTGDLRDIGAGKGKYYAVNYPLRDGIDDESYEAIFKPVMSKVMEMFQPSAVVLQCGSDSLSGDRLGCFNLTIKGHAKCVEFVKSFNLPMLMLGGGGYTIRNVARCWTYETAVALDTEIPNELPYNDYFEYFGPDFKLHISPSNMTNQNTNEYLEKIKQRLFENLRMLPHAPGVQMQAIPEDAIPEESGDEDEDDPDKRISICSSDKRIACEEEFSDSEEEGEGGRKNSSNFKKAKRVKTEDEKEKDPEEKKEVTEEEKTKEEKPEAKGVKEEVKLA

[4] = tested on: MCF7; experiment: cells; type: functional, cell-based; settings: Homo sapiens, MCF7, 72 h
Description: Antiproliferative activity against human MCF7 cells incubated for 72 hrs by MTT assay

[5] = biological target: T1, Amine oxidase [flavin-containing] B (Homo sapiens, UniProt P27338)
T1 sequence (P27338 whole entry): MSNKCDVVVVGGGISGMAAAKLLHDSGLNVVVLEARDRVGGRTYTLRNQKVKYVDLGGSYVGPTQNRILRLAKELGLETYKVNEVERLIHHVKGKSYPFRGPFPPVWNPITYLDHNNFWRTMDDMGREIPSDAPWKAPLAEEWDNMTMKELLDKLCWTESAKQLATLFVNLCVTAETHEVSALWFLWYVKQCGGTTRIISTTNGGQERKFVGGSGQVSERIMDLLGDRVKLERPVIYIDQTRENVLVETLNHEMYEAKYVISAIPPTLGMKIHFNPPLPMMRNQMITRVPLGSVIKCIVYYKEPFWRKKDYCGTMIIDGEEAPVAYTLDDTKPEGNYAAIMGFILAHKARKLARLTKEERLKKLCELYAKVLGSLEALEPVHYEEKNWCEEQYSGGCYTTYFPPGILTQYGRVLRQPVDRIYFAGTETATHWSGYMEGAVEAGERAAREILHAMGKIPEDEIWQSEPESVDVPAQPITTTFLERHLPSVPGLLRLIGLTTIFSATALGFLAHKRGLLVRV
Description: Inhibition of MAOB (unknown origin) using beetle luciferin as substrate by MAO-Glo assay

[6] = biological target: Histone deacetylase 2 (Homo sapiens, UniProt Q92769)
Histone deacetylase 2, sequence (Q92769 whole entry): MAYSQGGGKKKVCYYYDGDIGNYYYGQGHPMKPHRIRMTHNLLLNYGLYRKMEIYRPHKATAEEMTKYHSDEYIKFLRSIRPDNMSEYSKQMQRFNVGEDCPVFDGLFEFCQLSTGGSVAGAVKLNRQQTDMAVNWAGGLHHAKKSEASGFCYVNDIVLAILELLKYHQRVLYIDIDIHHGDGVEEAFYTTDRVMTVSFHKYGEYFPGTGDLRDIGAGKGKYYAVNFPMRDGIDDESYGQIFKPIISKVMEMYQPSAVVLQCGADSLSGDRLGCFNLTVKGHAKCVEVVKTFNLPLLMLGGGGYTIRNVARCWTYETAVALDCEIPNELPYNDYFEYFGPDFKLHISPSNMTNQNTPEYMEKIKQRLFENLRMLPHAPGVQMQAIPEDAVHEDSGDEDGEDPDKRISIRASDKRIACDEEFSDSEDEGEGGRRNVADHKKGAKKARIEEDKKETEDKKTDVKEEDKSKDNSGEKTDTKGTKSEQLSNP
Description: Inhibition of C-terminal His-tagged full length human HDAC2 expressed in baculovirus expression system using Ac-peptide substrate incubated for 15 mins by fluorescence based assay

[7] = tested on: A549; experiment: cells; type: functional, cell-based; settings: Homo sapiens, A549, 72 h
Description: Antiproliferative activity against human A549 cells incubated for 72 hrs by MTT assay

[8] = biological target: Histone deacetylase 5 (Homo sapiens, UniProt Q9UQL6); experiment: Inhibition of C-terminal His-tagged human HDAC5 (656-1122 residues) expressed in baculovirus expression system using Ac-peptide substrate incubated for 15 mins by fluorescence based assay
Histone deacetylase 5, sequence (Q9UQL6 whole entry, the tested form may be a part): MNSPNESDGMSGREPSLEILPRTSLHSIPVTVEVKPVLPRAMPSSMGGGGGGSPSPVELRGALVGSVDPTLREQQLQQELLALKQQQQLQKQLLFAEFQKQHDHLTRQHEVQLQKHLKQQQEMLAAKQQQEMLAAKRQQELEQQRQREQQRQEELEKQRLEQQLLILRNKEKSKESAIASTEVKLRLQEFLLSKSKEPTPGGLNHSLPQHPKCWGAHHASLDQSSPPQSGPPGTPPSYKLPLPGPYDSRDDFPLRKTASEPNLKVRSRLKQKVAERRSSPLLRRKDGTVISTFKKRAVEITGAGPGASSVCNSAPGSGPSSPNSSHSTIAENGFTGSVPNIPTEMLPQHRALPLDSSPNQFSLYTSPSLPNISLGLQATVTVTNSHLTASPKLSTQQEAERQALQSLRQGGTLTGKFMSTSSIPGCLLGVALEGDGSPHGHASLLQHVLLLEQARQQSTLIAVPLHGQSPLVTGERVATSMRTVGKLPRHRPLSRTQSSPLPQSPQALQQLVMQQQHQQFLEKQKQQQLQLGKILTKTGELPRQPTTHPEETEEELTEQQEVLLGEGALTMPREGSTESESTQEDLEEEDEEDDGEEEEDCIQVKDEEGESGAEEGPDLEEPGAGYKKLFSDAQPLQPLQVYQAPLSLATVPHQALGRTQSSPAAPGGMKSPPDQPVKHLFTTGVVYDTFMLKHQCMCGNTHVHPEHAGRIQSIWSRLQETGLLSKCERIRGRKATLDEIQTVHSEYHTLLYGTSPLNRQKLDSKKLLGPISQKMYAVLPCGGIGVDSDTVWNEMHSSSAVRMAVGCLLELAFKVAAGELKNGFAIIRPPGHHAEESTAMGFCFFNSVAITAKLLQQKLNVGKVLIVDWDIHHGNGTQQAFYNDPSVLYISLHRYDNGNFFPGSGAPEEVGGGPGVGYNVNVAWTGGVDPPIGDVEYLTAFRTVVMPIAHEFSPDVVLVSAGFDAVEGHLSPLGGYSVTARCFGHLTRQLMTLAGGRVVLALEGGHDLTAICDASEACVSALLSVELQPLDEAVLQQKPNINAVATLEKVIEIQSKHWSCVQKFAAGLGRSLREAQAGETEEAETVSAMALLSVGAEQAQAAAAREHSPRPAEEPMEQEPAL

[9] = biological target: Lysine-specific histone demethylase 1A (Homo sapiens, UniProt O60341)
Description: Inhibition of recombinant LSD1 (157 to 852 amino acids) (unknown origin) expressed in Escherichia coli BL21(DE) using H3K4me2 substrate by amplex red and horseradish peroxidase based fluorescence assay

[10] = tested on: SW-620; experiment: cells; type: functional, cell-based; settings: Homo sapiens, SW-620, 72 h
Description: Antiproliferative activity against human SW620 cells incubated for 72 hrs by MTT assay

[11] = biological target: T2, Amine oxidase [flavin-containing] A (Homo sapiens, UniProt P21397)
T2 sequence (P21397 whole entry): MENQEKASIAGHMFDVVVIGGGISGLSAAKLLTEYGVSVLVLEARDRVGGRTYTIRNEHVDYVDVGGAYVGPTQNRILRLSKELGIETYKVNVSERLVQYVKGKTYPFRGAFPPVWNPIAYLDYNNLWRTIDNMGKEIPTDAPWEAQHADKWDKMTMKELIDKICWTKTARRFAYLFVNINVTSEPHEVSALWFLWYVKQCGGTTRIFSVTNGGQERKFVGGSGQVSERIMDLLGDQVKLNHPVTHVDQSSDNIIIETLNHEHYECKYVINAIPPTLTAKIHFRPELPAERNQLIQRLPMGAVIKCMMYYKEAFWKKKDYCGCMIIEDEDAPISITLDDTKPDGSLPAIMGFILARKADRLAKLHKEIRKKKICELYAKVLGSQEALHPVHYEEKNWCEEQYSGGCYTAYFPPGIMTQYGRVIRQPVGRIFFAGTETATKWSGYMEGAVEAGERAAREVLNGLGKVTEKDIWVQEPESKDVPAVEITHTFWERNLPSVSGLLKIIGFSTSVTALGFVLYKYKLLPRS
Description: Inhibition of MAOA (unknown origin) using beetle luciferin as substrate by MAO-Glo assay

- pIC50 [1]: 4.87
- pIC50 [2]: 4.94
- pIC50 [3]: 6.50
- pIC50 [4]: 4.66
- pIC50 [5]: < 4.00
- pIC50 [6]: 6.31
- pIC50 [7]: 5.50
- IC50 [8]: Not Active
- pIC50 [9]: 5.41
- pIC50 [10]: 4.57
- pIC50 [11]: 4.43
SMILES: Nc1ccccc1NC(=O)/C=C/c1ccc(CNC2CC2c2ccccc2)cc1 (stereo unspecified)
